The values that follow come from ChEMBL document CHEMBL5291721, “A preclinical secondary pharmacology resource illuminates target-adverse drug reaction associations of marketed drugs” (Nat Commun, 2023).

By AC50 is commonly meant the concentration giving half of the maximal activity seen.

Where only a bound is given, the exact number is not on record here.

Test [1] addresses 3',5'-cyclic-AMP phosphodiesterase 4D (Homo sapiens, UniProt Q08499). The class given is functional.
Test [2] addresses Gamma-aminobutyric acid receptor subunit alpha-1 (Rattus norvegicus, UniProt P62813). Type of test: functional.
Test [3] has as its target T1, 5-hydroxytryptamine receptor 3A (Homo sapiens, UniProt P46098).
T1 sequence (P46098 whole entry): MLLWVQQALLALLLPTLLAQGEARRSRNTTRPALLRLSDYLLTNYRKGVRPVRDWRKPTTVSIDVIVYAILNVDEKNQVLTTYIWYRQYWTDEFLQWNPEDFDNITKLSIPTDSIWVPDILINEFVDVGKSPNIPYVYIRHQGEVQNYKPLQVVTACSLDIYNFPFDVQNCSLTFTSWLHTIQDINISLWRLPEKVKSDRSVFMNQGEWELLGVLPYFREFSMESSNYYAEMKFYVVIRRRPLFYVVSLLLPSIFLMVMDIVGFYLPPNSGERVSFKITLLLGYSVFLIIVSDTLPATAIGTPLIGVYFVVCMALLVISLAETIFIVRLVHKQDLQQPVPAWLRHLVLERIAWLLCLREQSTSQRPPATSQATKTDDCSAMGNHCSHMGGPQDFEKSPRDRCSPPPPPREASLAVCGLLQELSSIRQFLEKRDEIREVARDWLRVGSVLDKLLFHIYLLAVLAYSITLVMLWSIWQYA
The class given is functional.

Test [4] concerns the target cGMP-inhibited 3',5'-cyclic phosphodiesterase 3A (Homo sapiens, UniProt Q14432). The class given is functional.
Test [5] concerns the target T2, Alpha-1A adrenergic receptor (Homo sapiens, UniProt P35348).
T2 sequence (P35348 whole entry): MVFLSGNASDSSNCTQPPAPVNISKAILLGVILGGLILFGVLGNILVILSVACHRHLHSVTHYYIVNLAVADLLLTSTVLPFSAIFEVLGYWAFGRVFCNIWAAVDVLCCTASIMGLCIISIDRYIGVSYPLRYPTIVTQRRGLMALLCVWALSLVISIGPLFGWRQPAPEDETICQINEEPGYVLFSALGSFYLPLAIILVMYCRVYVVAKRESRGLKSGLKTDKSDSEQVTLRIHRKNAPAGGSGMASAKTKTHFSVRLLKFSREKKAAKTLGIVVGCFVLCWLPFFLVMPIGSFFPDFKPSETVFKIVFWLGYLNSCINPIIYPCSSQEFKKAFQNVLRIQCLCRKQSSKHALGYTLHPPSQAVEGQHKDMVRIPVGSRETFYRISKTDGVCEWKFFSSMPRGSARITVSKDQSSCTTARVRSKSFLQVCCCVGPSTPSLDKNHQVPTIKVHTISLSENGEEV

Test [6] addresses Melanocortin receptor 4 (Homo sapiens, UniProt P32245).
Test [7] has as its target T3, Adenosine receptor A1 (Homo sapiens, UniProt P30542).
T3 sequence (P30542 whole entry): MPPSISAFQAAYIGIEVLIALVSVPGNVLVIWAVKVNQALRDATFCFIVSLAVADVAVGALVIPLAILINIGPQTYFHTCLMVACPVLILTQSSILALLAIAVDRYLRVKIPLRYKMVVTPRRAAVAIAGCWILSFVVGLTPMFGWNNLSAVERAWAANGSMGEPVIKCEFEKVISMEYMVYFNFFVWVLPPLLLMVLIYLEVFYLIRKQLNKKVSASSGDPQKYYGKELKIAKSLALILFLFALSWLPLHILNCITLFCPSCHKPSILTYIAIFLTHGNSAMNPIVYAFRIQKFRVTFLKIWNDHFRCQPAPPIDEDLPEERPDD

Test [8] has as its target T4, 5-hydroxytryptamine receptor 2C (Homo sapiens, UniProt P28335).
T4 sequence (P28335 whole entry): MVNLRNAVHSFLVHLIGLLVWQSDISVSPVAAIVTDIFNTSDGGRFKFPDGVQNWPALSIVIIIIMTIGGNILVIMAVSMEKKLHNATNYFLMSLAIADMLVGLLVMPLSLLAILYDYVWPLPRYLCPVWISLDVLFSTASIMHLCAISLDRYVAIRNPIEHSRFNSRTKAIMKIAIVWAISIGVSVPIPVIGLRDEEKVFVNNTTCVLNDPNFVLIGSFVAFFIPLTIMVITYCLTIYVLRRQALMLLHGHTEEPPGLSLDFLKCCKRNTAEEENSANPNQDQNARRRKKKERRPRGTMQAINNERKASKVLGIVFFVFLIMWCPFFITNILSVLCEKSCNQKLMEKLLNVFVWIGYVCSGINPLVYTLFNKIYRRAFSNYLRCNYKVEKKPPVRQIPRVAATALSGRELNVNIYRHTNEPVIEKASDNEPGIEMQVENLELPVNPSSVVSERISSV

The target in test [9] is Histamine H2 receptor (Homo sapiens, UniProt P25021). The class given is functional, cell-based.
Test [10] addresses Melanocortin receptor 3 (Homo sapiens, UniProt P41968).
Test [11] has as its target T5, Cannabinoid receptor 1 (Homo sapiens, UniProt P21554). The class given is functional, cell-based.
Test [12] deals with T5, Cannabinoid receptor 1. Type of test: functional, cell-based. The source holds these as a separate data set.
Test [13] deals with T6, Alpha-2B adrenergic receptor (Homo sapiens, UniProt P18089).
T6 sequence (P18089 whole entry): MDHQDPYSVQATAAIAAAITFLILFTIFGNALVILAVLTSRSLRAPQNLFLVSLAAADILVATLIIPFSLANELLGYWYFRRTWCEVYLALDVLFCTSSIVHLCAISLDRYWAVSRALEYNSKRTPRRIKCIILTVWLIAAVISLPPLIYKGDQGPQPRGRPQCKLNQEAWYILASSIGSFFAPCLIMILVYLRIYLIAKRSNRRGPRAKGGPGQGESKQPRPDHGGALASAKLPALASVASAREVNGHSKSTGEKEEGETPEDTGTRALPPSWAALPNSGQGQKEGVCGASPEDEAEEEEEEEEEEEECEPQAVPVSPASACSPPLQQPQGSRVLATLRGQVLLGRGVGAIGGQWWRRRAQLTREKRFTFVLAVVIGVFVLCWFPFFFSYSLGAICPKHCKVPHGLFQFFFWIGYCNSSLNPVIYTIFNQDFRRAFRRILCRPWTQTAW
Also: assay procedure not described here.

T5 sequence (P21554 whole entry): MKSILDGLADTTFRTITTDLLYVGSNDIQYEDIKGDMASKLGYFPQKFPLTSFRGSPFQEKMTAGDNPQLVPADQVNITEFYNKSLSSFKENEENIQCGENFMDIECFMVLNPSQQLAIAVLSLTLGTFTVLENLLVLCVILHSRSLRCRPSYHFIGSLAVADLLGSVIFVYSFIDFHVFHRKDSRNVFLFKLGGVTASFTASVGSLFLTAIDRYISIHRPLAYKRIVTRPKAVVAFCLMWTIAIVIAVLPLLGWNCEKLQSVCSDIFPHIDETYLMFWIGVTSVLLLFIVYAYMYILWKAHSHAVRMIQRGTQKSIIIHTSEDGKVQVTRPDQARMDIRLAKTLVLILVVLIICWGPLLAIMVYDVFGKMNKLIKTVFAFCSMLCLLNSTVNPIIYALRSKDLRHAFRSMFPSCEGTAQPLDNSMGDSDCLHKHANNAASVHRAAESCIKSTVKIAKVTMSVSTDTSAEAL
Chain of Melanocortin receptor 4 (P32245 whole entry): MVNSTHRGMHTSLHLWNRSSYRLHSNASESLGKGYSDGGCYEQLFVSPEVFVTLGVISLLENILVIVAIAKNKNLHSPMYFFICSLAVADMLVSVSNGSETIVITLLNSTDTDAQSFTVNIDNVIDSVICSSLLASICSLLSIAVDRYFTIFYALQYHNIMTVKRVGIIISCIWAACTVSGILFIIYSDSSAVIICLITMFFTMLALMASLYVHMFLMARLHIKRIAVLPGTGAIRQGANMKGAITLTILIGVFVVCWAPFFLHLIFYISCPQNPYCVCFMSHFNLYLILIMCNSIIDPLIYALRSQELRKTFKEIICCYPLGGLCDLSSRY
Chain of Melanocortin receptor 3 (P41968 whole entry): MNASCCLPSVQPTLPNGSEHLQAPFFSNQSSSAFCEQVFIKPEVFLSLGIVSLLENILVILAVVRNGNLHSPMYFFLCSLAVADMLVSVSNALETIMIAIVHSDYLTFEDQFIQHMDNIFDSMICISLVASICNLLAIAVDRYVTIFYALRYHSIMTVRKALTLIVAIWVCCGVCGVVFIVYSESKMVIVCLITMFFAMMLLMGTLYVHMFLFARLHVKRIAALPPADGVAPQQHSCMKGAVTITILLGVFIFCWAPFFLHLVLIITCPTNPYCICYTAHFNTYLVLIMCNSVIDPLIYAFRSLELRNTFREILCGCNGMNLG
Chain of cGMP-inhibited 3',5'-cyclic phosphodiesterase 3A (Q14432 whole entry): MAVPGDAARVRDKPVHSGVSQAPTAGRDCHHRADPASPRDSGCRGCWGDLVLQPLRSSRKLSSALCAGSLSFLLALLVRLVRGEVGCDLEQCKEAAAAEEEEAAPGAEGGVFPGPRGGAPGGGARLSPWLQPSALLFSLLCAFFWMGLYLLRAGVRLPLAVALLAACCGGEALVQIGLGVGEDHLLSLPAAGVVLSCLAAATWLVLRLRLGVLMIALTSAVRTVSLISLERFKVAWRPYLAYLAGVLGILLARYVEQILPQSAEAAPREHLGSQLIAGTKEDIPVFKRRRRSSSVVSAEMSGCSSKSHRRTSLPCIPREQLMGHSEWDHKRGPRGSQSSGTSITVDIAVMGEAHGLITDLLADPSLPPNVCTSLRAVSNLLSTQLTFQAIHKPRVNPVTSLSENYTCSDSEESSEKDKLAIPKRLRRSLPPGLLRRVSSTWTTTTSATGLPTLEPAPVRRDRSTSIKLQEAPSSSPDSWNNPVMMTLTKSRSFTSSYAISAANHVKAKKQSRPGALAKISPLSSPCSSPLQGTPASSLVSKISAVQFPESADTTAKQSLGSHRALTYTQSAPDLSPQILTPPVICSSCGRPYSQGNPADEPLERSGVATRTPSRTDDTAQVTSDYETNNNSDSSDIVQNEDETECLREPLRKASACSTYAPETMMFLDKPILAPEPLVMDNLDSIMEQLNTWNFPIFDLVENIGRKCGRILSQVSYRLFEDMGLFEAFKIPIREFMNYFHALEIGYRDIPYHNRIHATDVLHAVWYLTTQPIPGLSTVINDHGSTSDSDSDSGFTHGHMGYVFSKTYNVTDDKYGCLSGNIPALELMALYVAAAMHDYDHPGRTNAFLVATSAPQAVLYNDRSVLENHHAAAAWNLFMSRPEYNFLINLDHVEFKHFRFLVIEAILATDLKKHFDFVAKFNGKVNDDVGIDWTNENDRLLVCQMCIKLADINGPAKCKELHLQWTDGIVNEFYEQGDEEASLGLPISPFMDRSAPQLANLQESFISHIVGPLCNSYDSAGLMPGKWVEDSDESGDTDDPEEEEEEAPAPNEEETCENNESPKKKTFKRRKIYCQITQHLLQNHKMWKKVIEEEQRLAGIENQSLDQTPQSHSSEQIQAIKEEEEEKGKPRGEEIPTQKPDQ
Chain of 3',5'-cyclic-AMP phosphodiesterase 4D (Q08499 whole entry): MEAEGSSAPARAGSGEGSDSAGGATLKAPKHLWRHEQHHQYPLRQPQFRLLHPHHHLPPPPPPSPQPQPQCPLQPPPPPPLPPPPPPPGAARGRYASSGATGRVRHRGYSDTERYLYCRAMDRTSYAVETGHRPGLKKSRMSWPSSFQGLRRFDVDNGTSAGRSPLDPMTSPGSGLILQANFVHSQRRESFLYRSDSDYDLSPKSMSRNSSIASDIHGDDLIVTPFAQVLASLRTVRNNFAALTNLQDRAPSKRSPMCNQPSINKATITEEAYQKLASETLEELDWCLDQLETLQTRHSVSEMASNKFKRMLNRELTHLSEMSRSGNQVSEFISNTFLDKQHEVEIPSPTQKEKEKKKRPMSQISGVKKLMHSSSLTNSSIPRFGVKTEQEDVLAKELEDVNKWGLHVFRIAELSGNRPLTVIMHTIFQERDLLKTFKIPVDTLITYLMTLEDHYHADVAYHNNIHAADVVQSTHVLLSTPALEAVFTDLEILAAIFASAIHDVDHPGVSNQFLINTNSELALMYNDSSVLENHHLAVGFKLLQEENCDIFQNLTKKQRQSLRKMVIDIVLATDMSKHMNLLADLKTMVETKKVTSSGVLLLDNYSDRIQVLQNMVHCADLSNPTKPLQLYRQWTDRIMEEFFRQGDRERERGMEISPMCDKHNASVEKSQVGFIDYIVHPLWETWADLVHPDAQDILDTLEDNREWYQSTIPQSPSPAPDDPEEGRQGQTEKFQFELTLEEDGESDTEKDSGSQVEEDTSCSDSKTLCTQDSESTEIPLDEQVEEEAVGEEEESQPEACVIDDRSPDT
Chain of Histamine H2 receptor (P25021 whole entry): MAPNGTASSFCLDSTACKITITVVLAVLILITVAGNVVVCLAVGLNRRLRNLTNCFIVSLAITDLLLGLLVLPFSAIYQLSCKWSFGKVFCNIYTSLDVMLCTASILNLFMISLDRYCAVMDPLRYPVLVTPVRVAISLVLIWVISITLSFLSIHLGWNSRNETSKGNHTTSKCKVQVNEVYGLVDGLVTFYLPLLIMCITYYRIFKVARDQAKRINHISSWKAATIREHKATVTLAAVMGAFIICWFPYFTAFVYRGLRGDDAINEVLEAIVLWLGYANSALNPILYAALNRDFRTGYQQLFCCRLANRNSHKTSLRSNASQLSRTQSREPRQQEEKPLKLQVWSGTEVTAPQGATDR
Chain of Gamma-aminobutyric acid receptor subunit alpha-1 (P62813 whole entry): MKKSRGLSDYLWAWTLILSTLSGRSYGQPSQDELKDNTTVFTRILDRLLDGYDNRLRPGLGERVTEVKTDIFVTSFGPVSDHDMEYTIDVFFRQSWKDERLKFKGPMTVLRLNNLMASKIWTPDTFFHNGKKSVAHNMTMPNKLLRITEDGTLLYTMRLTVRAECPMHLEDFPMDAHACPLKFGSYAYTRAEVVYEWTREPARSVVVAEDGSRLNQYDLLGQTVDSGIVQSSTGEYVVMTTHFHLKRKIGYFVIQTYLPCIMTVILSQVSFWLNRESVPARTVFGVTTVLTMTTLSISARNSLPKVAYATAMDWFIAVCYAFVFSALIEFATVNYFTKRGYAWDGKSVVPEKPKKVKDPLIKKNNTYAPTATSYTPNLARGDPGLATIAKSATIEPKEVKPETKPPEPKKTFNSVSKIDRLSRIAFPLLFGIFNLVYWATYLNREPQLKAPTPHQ

`CCOC(=O)c1ccc(N)cc1` [BENZOCAINE]: the AC50 was more than 30 µM in test [1]; more than 10 µM in test [2]; more than 30 µM in test [3]; more than 30 µM in [4]; more than 10 µM in test [5]; more than 10 µM in test [6]. Further, the AC50 in test [7] is more than 10 µM; in test [8], more than 30 µM; in test [9], more than 10 µM; in test [10], more than 10 µM.

With `CC(C)(Oc1ccc(CCNC(=O)c2ccc(Cl)cc2)cc1)C(=O)O` [BEZAFIBRATE], the AC50 in test [1] was more than 30 µM; in test [2], more than 10 µM; in test [3], more than 30 µM; in test [4] it was more than 30 µM; in test [5], more than 10 µM; in test [6] it was more than 10 µM. The AC50 in test [7] is more than 10 µM; in [11], more than 30 µM; in [8], more than 30 µM; in test [9] it was more than 10 µM; in [12], more than 30 µM; in test [10] it was more than 10 µM.

As to `CC(O)(CS(=O)(=O)c1ccc(F)cc1)C(=O)Nc1ccc(C#N)c(C(F)(F)F)c1` (configuration not stated) [BICALUTAMIDE], the AC50 in test [1] was more than 30 µM; in test [2], more than 10 µM; in test [3], more than 10 µM; in test [4], more than 10 µM; in test [5] it was more than 10 µM; in test [6], more than 30 µM. The AC50 in test [7] was more than 30 µM; in [11] it was more than 30 µM; in test [8], more than 30 µM; in test [9], more than 10 µM; in test [12] it was more than 30 µM; in test [10], more than 30 µM.

For the molecule `CC(=O)O[C@]1(C(C)=O)CC[C@H]2[C@@H]3C=C(Cl)C4=CC(=O)[C@@H]5C[C@@H]5[C@]4(C)[C@H]3CC[C@@]21C` [CYPROTERONE ACETATE], the AC50 in test [1] was more than 30 µM; in test [2], more than 10 µM; in test [3], more than 30 µM; in test [4], more than 30 µM; in [5] it was more than 10 µM; in test [6] it was more than 30 µM. For the same molecule, the AC50 in [7], in [8] and in test [10] was more than 30 µM in each case.

Turning to `CNCCc1ccc(OC(=O)C(C)C)c(OC(=O)C(C)C)c1` [IBOPAMINE], the AC50 in test [1], in test [2], in test [3], in [4], in test [5] and in test [7] was more than 30 µM each time. Further, the AC50 in test [11], in [8], in test [13], in [9], in [12] and in test [10] was more than 30 µM in each case.

On to `Cc1ccccc1N1C(=O)c2cc(S(N)(=O)=O)c(Cl)cc2NC1C` (configuration not stated) [METOLAZONE], for which the AC50 in test [1] is more than 30 µM; in [2], more than 10 µM; in test [3] it was more than 30 µM; in [4], more than 30 µM; in [5], more than 10 µM; in [6], more than 10 µM. Moreover, the AC50 in test [7] is more than 10 µM; in test [8], more than 30 µM; in test [9], more than 10 µM; in test [10], more than 10 µM.

As to `O=C(O)c1cccnc1Nc1cccc(C(F)(F)F)c1` [NIFLUMIC ACID], the AC50 in test [1] was more than 30 µM; in test [2] it was more than 10 µM; in test [3], more than 30 µM; in [4], more than 30 µM; in [5], more than 10 µM; in [6], more than 10 µM. Besides, the AC50 in test [7] is more than 10 µM; in test [8], more than 30 µM; in [9], more than 10 µM; in [10] it was more than 10 µM.

Take `O=C1c2cccc3c2[C@H](CCC3)CN1[C@@H]1CN2CCC1CC2` [PALONOSETRON]: the AC50 was more than 30 µM in [1]; more than 30 µM in [2]; 0.0021 µM in [3]; more than 30 µM in test [4]; more than 30 µM in [6]; more than 30 µM in test [7]. Besides, the AC50 in [8], in [13], in [9] and in test [10] was more than 30 µM each time.

On to `CCCN1CC(NS(=O)(=O)N(CC)CC)CC2Cc3c(O)cccc3CC21` (configuration not stated) [QUINAGOLIDE], for which the AC50 was more than 30 µM in [1]; more than 30 µM in [2]; more than 30 µM in [3]; more than 30 µM in [4]; 29 µM in [5]; more than 30 µM in test [7]. The AC50 was more than 30 µM in [11]; more than 30 µM in test [8]; 11 µM in [13]; more than 30 µM in [9]; more than 30 µM in test [12]; more than 30 µM in [10].

Consider `COC(=O)[C@H]1[C@H]2C[C@@H]3c4[nH]c5cc(OC)ccc5c4CCN3C[C@H]2C[C@@H](OC(=O)c2cc(OC)c(OC)c(OC)c2)[C@@H]1OC` [RESERPINE], for which the AC50 in [1] is more than 30 µM; in test [2], more than 10 µM; in test [3], more than 30 µM; in [4] it was more than 30 µM; in [6], more than 10 µM; in test [7], more than 30 µM. In addition, the results for the AC50 in [8], in test [9] and in test [10] were more than 30 µM, more than 30 µM and more than 10 µM, respectively.

For the molecule `C[C@]12CCC(=O)C[C@@H]1CC[C@@H]1[C@@H]2CC[C@]2(C)[C@@H](O)CC[C@@H]12` [STANOLONE], the AC50 in test [1], in test [2], in [3], in [4], in test [5] and in test [6] was more than 30 µM in each case. Besides, the AC50 in test [7], in [8], in test [9] and in test [10] was more than 30 µM in each case.

On to `CCOC(=O)c1c(CSc2ccccc2)n(C)c2cc(Br)c(O)c(CN(C)C)c12` [UMIFENOVIR], for which the AC50 in [1] is 5.6 µM; in test [2] it was more than 30 µM; in test [3], more than 30 µM; in test [4], more than 30 µM; in test [7] it was more than 30 µM; in test [11] it was more than 30 µM. Further, the AC50 in test [8] was 2.6 µM; in test [13] it was 26 µM; in test [9], more than 30 µM; in [12], more than 30 µM; in test [10], more than 30 µM.
